Reference: PubChem BioAssay (NCI)
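Interpolation was linear, between the two tested concentrations surrounding the appropriate level; five concentrations were tested over 48 hours in 96-well plates. GI50 = concentration required for 50% inhibition of growth. TGI: concentration producing complete growth inhibition.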

Tests used:
Test in all cases: inhibition of tumour cell growth, NCI panel, 48 h
CCRF-CEM leukemia = tested on: CCRF-CEM leukemia
OVCAR-5 ovarian = tested on: OVCAR-5 ovarian
MCF7 breast = tested on: MCF7 breast
T-47D breast = tested on: T-47D breast
HT29 colon = tested on: HT29 colon
A498 renal = tested on: A498 renal
HOP-62 NSCLC = tested on: HOP-62 NSCLC
COLO 205 colon = tested on: COLO 205 colon
K-562 leukemia = tested on: K-562 leukemia
SR leukemia = tested on: SR leukemia

Compound	TGI (CCRF-CEM leukemia) [µM]	TGI (OVCAR-5 ovarian) [µM]	TGI (MCF7 breast) [µM]	TGI (T-47D breast) [µM]	TGI (HT29 colon) [µM]	TGI (A498 renal) [µM]	TGI (HOP-62 NSCLC) [µM]	TGI (COLO 205 colon) [µM]	TGI (K-562 leukemia) [µM]	TGI (SR leukemia) [µM]	GI50 (CCRF-CEM leukemia) [µM]	GI50 (OVCAR-5 ovarian) [µM]	GI50 (HT29 colon) [µM]	GI50 (COLO 205 colon) [µM]	GI50 (T-47D breast) [µM]	GI50 (A498 renal) [µM]
CNc1ncnc2c1cnn2Cc1cn(COCC(O)CO)nn1 (stereo not drawn)	> 100	> 100	> 100	> 100	> 100	> 100	> 100	> 100								
Cc1ccc([N+](=O)[O-])c2c(NCC(O)CO)ccnc12 (stereo not drawn)	> 100	> 100	> 100	> 100	> 100		> 100	75.1	> 100	> 100						
O=c1c2ccccc2nc(N/N=C/c2ccccc2O)n1-c1ccccc1	> 100	> 100	> 100		> 100	> 100	> 100	> 100	> 100							
O=c1ccc2ccc(O)cc2o1	> 100	> 100	> 100	> 100	> 100	> 100	> 100	> 100								
Cc1nc2ccccc2c(/C=C/c2ccc(Cl)cc2)c1C(=O)/C=C/c1ccccc1	> 100	3.39			> 100			4.62			1.32	1.83	1.58	1.98		
C=C1CN(C2=NCCO2)C1	> 100	> 100	> 100	> 100	> 100		> 100	> 100	> 100	> 100						
CC1=C(C)C(=O)C(C2=CC(=O)C=CC2=O)=C(C2=CC(=O)C=CC2=O)C1=O	> 100	> 100	> 81.4	77.5	> 100	> 100	> 100	> 100								
COC(=O)C(NC(=O)c1ccccc1)C(c1ccc(Cl)cc1)P(=O)(OC)OC (stereo not drawn)	> 100	> 100			> 100	> 100	> 100	> 100	> 100	> 100						
Cc1ccc(CCC(=O)C(=O)O)s1	> 100	> 100			> 100	> 100	> 100	> 100	> 100	> 100						
CCOC(=O)C(NC(=O)OC(C)(C)C)C(=O)OCC	> 100	> 100	> 100	> 100	> 100		> 100	> 100	> 100	> 100						
Cc1cc(S(=O)(=O)/N=C(/NN)NNc2cccc(C(F)(F)F)n2)c(S)cc1Cl	63.6	29.5		40.7	43.1	50.1	86.4	38.5	82.6	55.1						
COc1ccc(Sc2ccccc2N)cc1	83.8	> 100			50.5	> 100	> 100	32.8	> 100	> 100						
CCC(NC1=NCCO1)c1cccs1 (stereo not drawn)	65.4	30.7	29	37	63.9	42.5		34.9	47.4	> 100						
O=[N+]([O-])C(Cl)=C/C(=C(\Cl)SCc1ccccc1)[N+](=O)[O-]	18	52.4	> 100	40.2	68.6	81.4	36.2	32.3	30.5							
CC1=NN(c2nc(N)nc(CF)n2)C(C)(C)C1	> 100		> 100	> 100	> 100	> 100	> 100	> 100	> 100	> 100						
CC(C)(C)[Si](C)(C)OCC1OC(n2cnc3c(=O)[nH]c(N)nc32)C(O[Si](C)(C)C(C)(C)C)C1O[Si](C)(C)C(C)(C)C (stereo not drawn)		5.79	3.9	5.14	4.16	6.21	7.73	3.2	2.76	5.48						
O=C(N/N=C/c1cc(Br)cc(Br)c1[O-])c1ccccc1O.O=C(N/N=C/c1cc(Br)cc(Br)c1[O-])c1ccccc1O.[Ni+2]	> 100	1.34			2.24		1.82	3.22	4.88	1.65	0.537					
O=C(CSc1nc2ccccc2c(=O)n1-c1ccccc1)N=Nc1c(O)[nH]c2ccc(F)cc12	5.04	4.73	4.3	3.97	6.96		6.77	5.73	3.35	4.21						
CC(=O)OC1COC(Nc2nc(N)n(C)c(=O)c2N=O)C(OC(C)=O)C1OC(C)=O (stereo not drawn)	> 10	> 10	> 10	> 10	> 10	> 10	> 10	> 10		> 10						
COC1OC2=CCC3C(=O)NC(=O)C3C2[C@H](OCc2ccccc2)C1OCc1ccccc1 (stereo partly drawn)		29.1			3.36		31.7									
COc1ccc2nc3cc(Cl)ccc3c(NCCNc3c4ccc(Cl)cc4nc4ccc(OC)cc34)c2c1	6.68			3.94		3.36		3.39			2.19			1.64	1.89	1.8
C=C1C(=O)OC2CC3(C)OC3CC/C(C)=C/C(OC(C)=O)C12 (stereo not drawn)	12.7	23	18	15.9	13.5	29.9	33.5	4.03	15.4							
Fc1cc(-c2cc(-c3ccc4c(c3)OCO4)n[nH]2)c(Cl)cc1Cl	> 89	13.7		7.79	15.9		5.81	> 23.4	> 40.1	> 50.1						
O=C1CC2CCC(C1)S2=O (stereo not drawn)	> 100		> 100	> 100	> 100		> 100	> 100	> 100	> 100						
